Broadly, the IC50 is the concentration that gives 50% inhibition. Higher therefore signals a need for much substance.

Our source for the IC50 values is ChEMBL document CHEMBL1150390, “Identification of halosalicylamide derivatives as a novel class of allosteric inhibitors of HCV NS5B polymerase” (Bioorg Med Chem Lett, 2008).

Bounds are passed on as bounds.

Biological target in one test: not listed separately
As to the kind of experiment: Inhibition of HCV 1a NS5B polymerase. Further details: species or system Hepatitis C virus subtype 1a.
On to `O=C(Nc1ccc(Cl)c(Cl)c1)c1cc(I)cc(I)c1O`, for which the half-inhibitory concentration (IC50) came to 5.7 µM.

For a further test, the system named is Hepatitis C virus. As to the kind of experiment: Inhibition of HCV 1b NS5B polymerase. Further details: species or system Hepatitis C virus subtype 1b.
In turn, `O=C(Nc1ccc(Br)cc1)c1cc(Br)cc(Br)c1O` [TRIBROMSALAN] registered an IC50 of 6.7 µM.
For the molecule `Cc1ccc(NC(=O)c2cc(I)cc(I)c2O)cc1`, the IC50 worked out at 37 µM.
For the molecule `O=C(Nc1ccc(Cl)c(Cl)c1)c1cc(I)cc(I)c1O`, half-maximal inhibition (IC50) was put at 4.7 µM.
The same measure, in the same setting: for `Nc1c(Cl)cc(Cl)cc1C(=O)Nc1ccc(Cl)c(Cl)c1` the value was 102 µM; for `CN(C(=O)c1cc(Br)cc(Br)c1O)c1ccc(Cl)cc1`, 135 µM.
Same read-out and setting: as for `Cc1cc(NC(=O)c2cc(Cl)cc(Cl)c2N)ccc1Cl`, the figure is 108 µM; as for `COc1c(Cl)cc(Cl)cc1C(=O)Nc1ccc(Br)cc1`, greater than 200 µM; as for `O=C(Nc1ccc(Nc2ccccc2)cc1)c1cc(I)cc(I)c1O`, 1.9 µM.
Molecule `CC(=O)Oc1c(I)cc(I)cc1C(=O)Nc1ccc(Cl)c(Cl)c1` registered an IC50 greater than 200 µM.
`O=C(Nc1ccc(F)cc1)c1cc(I)cc(I)c1O` came in with an IC50 of 33 µM.
Consider `Cc1cc(NC(=O)c2cc(Cl)cc(Cl)c2O)ccc1Cl`, for which it took 9 µM to reach half-maximal inhibition (IC50).
In the case of `O=C(Nc1ccc(O)cc1)c1cc(I)cc(I)c1O`, the 50% inhibitory concentration (IC50) stood at 54 µM.
On the same count and under the same terms, as for `O=C(Nc1ccc(Cl)cc1)c1cc(I)cc(I)c1O`, the figure is 11 µM; as for `COc1cc(Br)ccc1NC(=O)c1cc(Cl)cc(Cl)c1OC`, greater than 200 µM.
Same read-out and setting: for `O=C(Nc1ccccc1)c1cc(I)cc(I)c1O` the value was 46 µM.
`Nc1c(Br)cc(Br)cc1C(=O)Nc1cccc(Br)c1`: it took 131 µM to reach half-maximal inhibition (IC50).
The same measure, in the same setting: for `CN(C(=O)c1cc(I)cc(I)c1O)c1ccc(Cl)c(Cl)c1` the value was greater than 200 µM; for `Oc1c(I)cc(I)cc1/C=N/c1ccc(Cl)cc1Cl`, 8.8 µM; for `O=C(Nc1ccc(Oc2ccccc2)cc1)c1cc(I)cc(I)c1O`, 5.6 µM.
Still for that read-out and setting: as for `O=C(Nc1ccc(Cl)cc1O)c1cc(I)cc(I)c1O`, the figure is 8.6 µM.
`COc1ccc(NC(=O)c2cc(I)cc(I)c2O)cc1` came in with an IC50 of 46 µM.
`Nc1c(Br)cc(Br)cc1C(=O)Nc1ccc(Br)cc1` returned a 50% inhibitory concentration (IC50) of 98 µM.
On to `Nc1ccc(NC(=O)c2cc(I)cc(I)c2O)cc1`, for which half-maximal inhibition (IC50) required 30 µM.
`O=C(Nc1ccc(Cl)c(Cl)c1)c1cc(Cl)cc(Cl)c1O` [3,3',4',5-TETRACHLOROSALICYLANILIDE] yielded an IC50 of 8.6 µM.
With `O=C(Nc1cccc(Br)c1)c1cc(Br)cc(Br)c1O`, it took 6.9 µM to reach half-maximal inhibition (IC50).
In the case of `O=C(Nc1ccc(Br)cc1)c1cc(I)cc(I)c1O`, the midpoint of inhibition, the IC50, lay at 10 µM.

Biological target in another test: not listed separately
As to the kind of experiment: Inhibition of HCV 2b NS5B polymerase. Further details: species or system Hepatitis C virus subtype 2b.
`O=C(Nc1ccc(Cl)c(Cl)c1)c1cc(I)cc(I)c1O`: the IC50 is 17.3 µM.

Biological target in a further test: not listed separately
Briefly: Inhibition of HCV 2a NS5B polymerase. On the set-up: species or system Hepatitis C virus subtype 2a.
On to `O=C(Nc1ccc(Cl)c(Cl)c1)c1cc(I)cc(I)c1O`, for which the IC50 stood at 16.2 µM.

Biological target in the next test: not listed separately
Briefly: Inhibition of HCV 3a NS5B polymerase. Further details: species or system Hepatitis C virus subtype 3a.
In turn, `O=C(Nc1ccc(Cl)c(Cl)c1)c1cc(I)cc(I)c1O` returned an IC50 of 14.3 µM.

Another test deals with Genome polyprotein (Hepatitis C virus genotype 1b (isolate BK) (HCV), UniProt P26663). As to the kind of experiment: Inhibition of HCV BK NS5B polymerase.
Sequence of Genome polyprotein (P26663 2420-3010 limits assumed): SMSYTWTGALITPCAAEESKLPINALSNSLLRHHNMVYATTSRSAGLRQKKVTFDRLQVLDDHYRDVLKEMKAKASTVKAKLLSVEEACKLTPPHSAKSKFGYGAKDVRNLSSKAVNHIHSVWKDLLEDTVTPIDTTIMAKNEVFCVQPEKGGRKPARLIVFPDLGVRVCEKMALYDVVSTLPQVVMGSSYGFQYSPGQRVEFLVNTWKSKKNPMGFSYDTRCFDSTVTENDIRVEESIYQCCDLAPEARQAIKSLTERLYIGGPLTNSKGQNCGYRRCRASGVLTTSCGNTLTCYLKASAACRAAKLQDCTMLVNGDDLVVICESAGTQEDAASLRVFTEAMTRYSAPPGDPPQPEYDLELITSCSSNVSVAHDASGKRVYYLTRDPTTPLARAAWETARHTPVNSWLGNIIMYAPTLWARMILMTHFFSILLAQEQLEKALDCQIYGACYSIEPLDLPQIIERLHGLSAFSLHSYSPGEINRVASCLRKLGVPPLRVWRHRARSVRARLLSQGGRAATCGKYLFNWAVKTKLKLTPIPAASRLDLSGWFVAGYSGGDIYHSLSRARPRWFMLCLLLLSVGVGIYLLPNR
With `O=C(Nc1ccc(Cl)c(Cl)c1)c1cc(I)cc(I)c1O`, the IC50 amounted to 8.6 µM.
